Test results reported in ChEMBL document CHEMBL1145057, “Water soluble, core-modified porphyrins. 3. Synthesis, photophysical properties, and in vitro studies of photosensitization, uptake, and localization with carboxylic acid-substituted derivatives” (J Med Chem, 2003).

Assay: Partition coefficient (logP)
Assay type: physicochemical
Settings: octanol/water

Compound	logP
O=C(O)COc1ccc(-c2c3nc(c(-c4ccccc4)c4ccc(s4)c(-c4ccccc4)c4nc(c(-c5ccccc5)c5ccc2s5)C=C4)C=C3)cc1	> 3.5
O=C(O)COc1ccc(-c2c3nc(c(-c4ccccc4)c4ccc(s4)c(-c4ccccc4)c4nc(c(-c5ccc(OCC(=O)O)cc5)c5ccc2[se]5)C=C4)C=C3)cc1	-0.67
O=S(=O)(O)c1ccc(-c2c3nc(c(-c4ccc(F)cc4)c4ccc(s4)c(-c4ccc(F)cc4)c4nc(c(-c5ccc(S(=O)(=O)O)cc5)c5ccc2s5)C=C4)C=C3)cc1	-1.9

Second part, the compound after the results:

logP	Compound
-0.95	O=C(O)COc1ccc(-c2c3nc(c(-c4ccc(OCC(=O)O)cc4)c4ccc(s4)c(-c4ccc(OCC(=O)O)cc4)c4nc(c(-c5ccc(OCC(=O)O)cc5)c5ccc2s5)C=C4)C=C3)cc1
-1.49	O=C(O)COc1ccc(-c2c3nc(c(-c4ccc(OCC(=O)O)cc4)c4ccc(s4)c(-c4ccc(OCC(=O)O)cc4)c4nc(c(-c5ccccc5)c5ccc2s5)C=C4)C=C3)cc1
0.036	O=C(O)COc1ccc(-c2c3nc(c(-c4ccccc4)c4ccc(s4)c(-c4ccccc4)c4nc(c(-c5ccc(OCC(=O)O)cc5)c5ccc2s5)C=C4)C=C3)cc1
